Laboratory results as given in patent US12391674B2, “Heterocyclic compounds for the treatment of epilepsy” (OTSUKA PHARMACEUTICAL CO., LTD., priority 2018, dated 2025).

Tests used:
ICR mice = assay: Rotarod test (motor coordination); type: in vivo, mouse; details: oral, rotarod 1 hour after administration
Method: This test is performed to evaluate the effect of the compound on the motor coordination. In this test example, the example compounds shown in Table 4 below were used as test compounds. Male ICR mice (Japan SLC, Inc., 5-6 weeks, 8 per group) were trained to remain on a fixed speed (15 rpm) rotating rod of rotarod apparatus (Muromachi Kikai Co., Ltd.) for 2 minutes. […] After 1 hour of oral administration, the mice were again placed on the rod accelerated from 4 rpm to 40 rpm over 5 minutes and the latency to fall off the rod was recorded for 200 seconds. The falling latency of the compound administration group was calculated as a relative value relative to the average value of the falling latency in the solvent administration group. Here, a coordination disorder of 25% or less was expressed as “A”, and a coordination disorder of more than 25% and 50% or less was expressed as “B”.

DBA/2 mice = assay: Audiogenic seizure model; type: in vivo; details: Mus musculus, DBA/2 mice, oral, auditory stimulation 1 hour after administration, read-out: Seizure suppression
In short: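 Male and female DBA/2 mice (3 weeks old, 8/group) dosed orally at 30 mg/kg in 5% gum arabic; 1 h later exposed to 12.6 kHz, 100-110 dB tone for 1 min or until tonic seizure. Maximum seizure score (0–4) recorded; suppression rate graded A (≥90%), B (70–<90%), C (50–<70%).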

| Compound | Motor dysfunction (ICR mice; dose 30 mg/kg) | inhibition in vivo at 30 mg/kg (DBA/2 mice) | Motor dysfunction (ICR mice; dose 5 mg/kg) | inhibition in vivo at 5 mg/kg (DBA/2 mice) | further results |
| --- | --- | --- | --- | --- | --- |
| O=C1CCCCN1c1cnc(Oc2cccc(F)c2)nc1 [Example 222] | A (a coordination disorder of 25% or less) | > 90% |  |  |  |
| Cc1cccc(Oc2ncc(-c3ccc4nccn4c3)cn2)c1 [Example 161] |  |  | A (a coordination disorder of 25% or less) | > 90% |  |
| c1ccc(Oc2ncc(-c3ccc4cnnn4c3)cn2)cc1 [Example 173, 6-(2-Phenoxypyrimidin-5-Yl)-[1,2,3]Triazolo[1,5-a]Pyridine] |  |  | A (a coordination disorder of 25% or less) | > 90% |  |
| O=C1CCN(c2ccc(Oc3ccccc3F)nc2)C(=O)N1 [Example 331] | A (a coordination disorder of 25% or less) | 70 to 90% |  |  |  |
| c1ccc(Oc2ncc(-c3ccc4cncn4c3)cn2)cc1 [Example 155] |  |  | A (a coordination disorder of 25% or less) | > 90% |  |
| FC(F)(F)c1cn2cc(-c3cnc(Oc4ccccc4)nc3)ccc2n1 [Example 214] | A (a coordination disorder of 25% or less) | > 90% |  |  |  |
| c1ccc(Oc2ncc(-c3ccn4nncc4c3)cn2)cc1 [Example 184] |  |  | A (a coordination disorder of 25% or less) | > 90% |  |
| O=c1[nH]nccc1-c1cnc(Oc2ccccc2)nc1 [Example 114, 4-(2-Phenoxypyrimidin-5-Yl)Pyridazin-3 (2H)-One] |  |  | A (a coordination disorder of 25% or less) | > 90% |  |
| c1ccc(Oc2ncc(-c3ccc4ccnn4c3)cn2)cc1 [Example 151] |  |  | A (a coordination disorder of 25% or less) | > 90% |  |
| c1ccc(Oc2ncc(-c3ccc4nccn4c3)cn2)cc1 [Example 119, 6-(2-Phenoxypyrimidin-5-Yl) Imidazo[1,2-a]Pyridine] |  |  | A (a coordination disorder of 25% or less) | > 90% |  |
| COc1ccc(-c2cnc(Oc3cccc(F)c3)nc2)nn1 [Example 4, 3-(2-(3-Fluorophenoxy)Pyrimidin-5-Yl)-6-Methoxypyridazine] |  |  | A (a coordination disorder of 25% or less) | > 90% |  |
| O=C1CCN(c2ccc(Oc3cccc(F)c3)cc2)C(=O)N1 [Example 302, 1-(4-(3-Fluorophenoxy)Phenyl)Dihydropyrimidine-2,4 (1H,3H)-Dione] | A (a coordination disorder of 25% or less) | > 90% |  |  |  |
| Cc1ccc(-c2cnc(Oc3ccccc3)nc2)nn1 [Example 2] |  | > 90% |  |  | Motor dysfunction (ICR mice; dose 10 mg/kg): A (a coordination disorder of 25% or less) |
| FC(F)(F)c1ncc2ccc(-c3cnc(Oc4ccccc4)nc3)cn12 [Example 285] |  |  | A (a coordination disorder of 25% or less) | > 90% |  |
| Nc1ccc(-c2cnc(Oc3cccc(C(F)(F)F)c3)nc2)nn1 [Example 40] |  |  |  |  | Motor dysfunction (ICR mice; dose 3 mg/kg): A (a coordination disorder of 25% or less); inhibition in vivo at 3 mg/kg (DBA/2 mice): > 90% |
| O=c1ccc(-c2cnc(Oc3c(F)cccc3F)nc2)n[nH]1 [Example 101] |  |  |  |  | Motor dysfunction (ICR mice; dose 3 mg/kg): A (a coordination disorder of 25% or less); inhibition in vivo at 3 mg/kg (DBA/2 mice): > 90% |
| O=C1CCN(c2ccc(Oc3ccccc3)cc2)C(=O)N1 [Example 303] | A (a coordination disorder of 25% or less) | > 90% |  |  |  |
| Cc1cc(Oc2ccccc2)ncc1N1CCC(=O)NC1=O [Example 325] | A (a coordination disorder of 25% or less) | 70 to 90% |  |  |  |
| COc1ccc(-c2cnc(Oc3ccccc3F)nc2)nn1 [Example 3] |  |  |  | > 90% | Motor dysfunction (ICR mice; dose 10 mg/kg): A (a coordination disorder of 25% or less) |

| Compound | Motor dysfunction (ICR mice; dose 30 mg/kg) | inhibition in vivo at 30 mg/kg (DBA/2 mice) | Motor dysfunction (ICR mice; dose 5 mg/kg) | inhibition in vivo at 5 mg/kg (DBA/2 mice) | further results |
| --- | --- | --- | --- | --- | --- |
| c1ccc(Oc2ncc(N3CCCCC3)cn2)cc1 [Example 223, 2-Phenoxy-5-(Piperidine-1-Yl)Pyrimidine] | A (a coordination disorder of 25% or less) | > 90% |  |  |  |
| c1ccc(Oc2ncc(-c3ccncn3)cn2)cc1 [Example 10] | A (a coordination disorder of 25% or less) | > 90% |  |  |  |
| O=C1NCCCN1c1cnc(Oc2ccccc2)nc1 [Example 220, 1-(2-Phenoxypyrimidin-5-Yl)Tetrahydropyrimidin-2 (1H)-One] | A (a coordination disorder of 25% or less) | > 90% |  |  |  |
| O=C1CCN(c2ccc(Oc3ccccn3)cc2)C(=O)N1 [Example 316] | A (a coordination disorder of 25% or less) | > 90% |  |  |  |
| c1ccc(Oc2ncc(-c3ccc4[nH]ccc4c3)cn2)cc1 [Example 262, 5-(2-Phenoxypyrimidin-5-Yl)-1H-Indole] |  |  | A (a coordination disorder of 25% or less) | > 90% |  |
| FC(F)(F)c1ncc(-c2cnc(Oc3ccccc3)nc2)cn1 [Example 296] | A (a coordination disorder of 25% or less) | > 90% |  |  |  |
| c1ccc(Oc2ncc(-c3ccc4[nH]cnc4c3)cn2)cc1 [Example 258] |  |  | A (a coordination disorder of 25% or less) | > 90% |  |
| Nc1ccc(-c2cnc(Oc3ccccc3)nc2)cn1 [Example 36, 5-(2-Phenoxypyrimidin-5-Yl)Pyridin-2-Amine] |  |  | A (a coordination disorder of 25% or less) | > 90% |  |
| CC1(C)CC(=O)NC(=O)N1c1ccc(Oc2ccccc2)cc1 [Example 337, 6,6-Dimethyl-1-(4-Phenoxyphenyl)Dihydropyrimidine-2,4 (1H,3H)-Dione] | A (a coordination disorder of 25% or less) | > 90% |  |  |  |
| Cc1cn2ccc(-c3cnc(Oc4ccccc4)nc3)cc2n1 [Example 181] |  |  | A (a coordination disorder of 25% or less) | 70 to 90% |  |
| c1ccc(Oc2ncc(-c3ccc4c(c3)OCO4)cn2)cc1 [Example 236] | A (a coordination disorder of 25% or less) | > 90% |  |  |  |
| O=c1ccc(-c2cnc(Oc3ccc(F)cc3)nc2)n[nH]1 [Example 97] |  |  |  |  | Motor dysfunction (ICR mice; dose 3 mg/kg): A (a coordination disorder of 25% or less); inhibition in vivo at 3 mg/kg (DBA/2 mice): > 90% |
| c1ccc(Oc2ncc(-c3cccc4cnccc34)cn2)cc1 [Example 248] |  |  | A (a coordination disorder of 25% or less) | > 90% |  |
| FC(F)(F)c1ccc(-c2cnc(Oc3ccccc3)nc2)nn1 [Example 38, 3-(2-Phenoxypyrimidin-5-Yl)-6-(Trifluoromethyl)Pyridazine] |  |  |  |  | Motor dysfunction (ICR mice; dose 10 mg/kg): A (a coordination disorder of 25% or less); inhibition in vivo at 10 mg/kg (DBA/2 mice; dose 10 mg/kg): > 90% |
| Fc1ccc(-c2cnc(Oc3ccccc3)nc2)cn1 [Example 33] | A (a coordination disorder of 25% or less) |  |  | > 90% |  |
| Cc1nc(N)ccc1-c1cnc(Oc2ccccc2)nc1 [Example 59] |  |  |  |  | Motor dysfunction (ICR mice; dose 3 mg/kg): A (a coordination disorder of 25% or less); inhibition in vivo at 3 mg/kg (DBA/2 mice): > 90% |
| NC(=O)c1ccc(-c2cnc(Oc3ccccc3)nc2)cc1 [Example 243] |  |  | A (a coordination disorder of 25% or less) | > 90% |  |
| O=C1Cc2nc(-c3cnc(Oc4ccccc4)nc3)ccc2N1 [Example 172, 5-(2-Phenoxypyrimidin-5-Yl)-1H-Pyrrolo[3,2-b]Pyridin-2 (3H)-One] |  |  | A (a coordination disorder of 25% or less) | > 90% |  |
